Assay: Human HepG2 cell viability assay in 384 well format
Format: toxicity, cell-based
Design: dose 125 nL, time 70.5 hour; cytotoxicity at 70.5 h: concentration not given beside the values
Settings: HepG2 cells, read-out: Inhibition

SMILES	cytotoxicity at 70.5 h [%]
Cc1cnn(Cc2ccc(NC(=O)N3CCCCC3CO)cc2)c1 (stereo not drawn)	24.6
Cc1ccc(C(C)(O)CNC(=O)NCCc2ccc3c(c2)CCO3)o1 (stereo not drawn)	26.1
COc1cc(CNC(=O)c2cc(Cl)ccc2F)ccn1	-5.8
COc1cc(CNC(=O)c2cc(S(C)(=O)=O)ccc2C)ccn1	-10.5
COc1cc(C#N)ccc1OCC(=O)NS(=O)(=O)c1cccnc1	-7.29
CCS(=O)(=O)Cc1csc(-c2ccc(S(C)(=O)=O)cc2)n1	-6.86
Cc1ccc(NC(C(N)=O)c2ccc(F)cc2)cc1 (stereo not drawn)	-0.0602
COc1cc(C#N)ccc1OCC(=O)NS(=O)(=O)c1ccccc1	-7.96
CC(C)(C)Oc1ccc(CN)c(C(F)(F)F)c1	6.84
CC(CS(C)(=O)=O)N(C)C(=O)NCCCc1ccc(Cl)cc1 (stereo not drawn)	-3.65
Cc1noc(CCCNC(=O)CNC(=O)c2cc3ccccc3[nH]2)n1	-5.29
CC(C)(C)c1nccc(N2CCCCC2CNS(C)(=O)=O)n1 (stereo not drawn)	-4.1
CCCc1csc(-c2ccc(S(C)(=O)=O)cc2)n1	-1.59
NC(=O)c1cc(C2CC2)nc2ccc(F)cc12	2.17
Cc1cc(C)c2nc(C3CC3)cc(C(=O)N3CCCC3C(N)=O)c2c1 (stereo not drawn)	26.2
CC(NC(=O)CCn1cccn1)c1cn(-c2ccccc2)nn1 (stereo not drawn)	-5.23
COc1ccc(Cl)cc1CCNC(=O)NCc1ccncc1	-0.665
Cc1cc(C(F)(F)F)c2c(=O)n(Cc3cc(C)on3)n(C)c2n1	-8.02
CCN(CC)C1CCN(C(=O)NCc2cccc(-n3ccnc3)c2)C1 (stereo not drawn)	-6.04
O=C(Nc1cnn(Cc2ccc(Cl)cc2)c1)N1CCCC1CO (stereo not drawn)	-7.38
CCN(CC)C1CCN(C(=O)NCc2cccc(-n3cccn3)c2)C1 (stereo not drawn)	-8.43
CC(Cc1ccc(Cl)cc1)N(C)C(=O)NCCS(C)(=O)=O (stereo not drawn)	18.5
Cc1ccccc1Cn1cnc2oc(C)c(C(=O)O)c2c1=O	-11.3
CN(C)c1cccc(C(=O)Nc2ccn(CCc3ccncc3)n2)c1	-12.6

SMILES	cytotoxicity at 70.5 h [%]
Cc1noc(C2CCN(Cn3cc(Br)cn3)CC2)n1	-8.17
CN(C)S(=O)(=O)c1ccc(=O)n(CC2CCCCO2)c1 (stereo not drawn)	-12.9
CN(C)S(=O)(=O)c1ccc(=O)n(CC2CCCO2)c1 (stereo not drawn)	-1.56
Cc1cc(C[S+]([O-])Cc2ccccc2C)no1 (stereo not drawn)	-8.16
Cc1cnn(C2CN(CCCOc3ccc(C#N)cc3)C2)c1	-2.39
NC(=O)C1CCN(c2ncccc2C(=O)N2CCc3ccccc32)C1 (stereo not drawn)	-5.78
Cc1cc(C(=O)NC(C)CC(=O)c2ccco2)[nH]n1 (stereo not drawn)	15.2
CCOc1ccc(Cl)cc1CCNC(=O)c1ccc(=O)n(C)c1	-10.2
CCS(=O)(=O)NCC(=O)NC1(C)CCc2ccccc2C1 (stereo not drawn)	-5.54
CCN1CC(COC(=O)c2cc(C)nn2CC)CC1=O (stereo not drawn)	-7.36
Cc1nsc(N2CCCN(CC(=O)N(C)C3CC3)CC2)n1	-4.31
CC(CC(=O)c1ccco1)NC(=O)c1ccccn1 (stereo not drawn)	-10.8
CCc1nsc(N2CCCN(CC(=O)N(C)C3CC3)CC2)n1	-6.24
Cc1cnn(C2CN(CC(O)COc3ccc(C#N)cc3)C2)c1 (stereo not drawn)	-3.3
COCCN(C)CC1CCCN1S(=O)(=O)Cc1ccccc1F (stereo not drawn)	13.2
Cc1ccc(C(=O)NCC(O)CN2CCCC2=O)cc1Cl (stereo not drawn)	6.85
Cc1noc(C)c1CC(=O)NCCc1cccs1	7.71
CCOC(=O)C(C)NC(=O)CCc1ccc(F)cc1 (stereo not drawn)	1.35
NC(=O)Nc1cccc(CNC(=O)CCCc2ccccc2)c1	18
O=C(CCNC(=O)NC1CC1)NCc1ccccc1	-6.54
CCc1ncc(C(=O)N2CCN(c3nc(C)cc(OC)n3)CC2)s1	15.8
CCc1[nH]ncc1C(=O)N1CCN(c2nc(C)cc(OC)n2)CC1	-4.16
CC(C)(C)C(=O)NCCC(=O)NS(=O)(=O)c1cccnc1	9.3
CCn1nc2c(cc1=O)CN(CCOc1ccc(C#N)cc1)CC2	17.6

SMILES	cytotoxicity at 70.5 h [%]
OCCN(Cc1cccnc1)c1cnc2ccccc2n1	-4.32
Cc1cccc(C)c1CN1C(=O)CC2(CCSC2)C1=O (stereo not drawn)	0.0631
OCCN(Cc1cccnc1)c1ccc(Br)cn1	-2.3
CN(CC(N)=O)C(=O)CCCn1ccc2cc(Cl)ccc21	10.8
CN1CCN(C2CCN(Cc3ccc(Cl)cc3)CC2)C1=O	-2.16
COCC(C)NC(=O)CCSc1ccc(F)cc1 (stereo not drawn)	13.7
CCN(CC)C(=O)CNC(=O)c1cnc(-c2ccccc2)nc1	-2.98
Cc1cccc(CN2CCC(NCC3CNc4cc(C)nn4C3)CC2)c1 (stereo not drawn)	-6.82
Cc1cc2n(n1)CC(CNC1CCN(C(=O)c3ccco3)CC1)CN2 (stereo not drawn)	-6.69
Cc1cc2n(n1)CC(CNC1CCN(C3CC3)CC1)CN2 (stereo not drawn)	-4.14
Cc1cc(S(=O)(=O)Nc2cccc(I)c2)sc1C(=O)O	13.9
O=C(NCC1CC1)c1cnc(-c2ccccc2)nc1	-5.81
CC(=O)c1cccc(NS(=O)(=O)c2cc(C)c(C(=O)O)s2)c1	-4.79
Cc1noc(C)c1CCC(=O)NC(C)c1nnc2n1CCCCC2 (stereo not drawn)	-4.24
Cc1nc(CN2CCC(CNC(=O)Nc3ccccc3)CC2)oc1C	-6.72
CCOc1ccc(NS(=O)(=O)c2cc(C)c(C(=O)O)s2)cc1F	-8.14
CCOc1c(Cl)cccc1NS(=O)(=O)c1cc(C)c(C(=O)O)s1	-4.74
Cn1cc(N2CCC(NC(=O)c3ccccc3F)C2=O)cn1 (stereo not drawn)	-1.23
Cc1cccc(C(=O)NC2CCN(c3cnn(C)c3)C2=O)c1C (stereo not drawn)	-2.07
CCC(CC)c1cc(CNC(=O)N2CCN(CC)CC2)on1	-2.19
CCOC(=O)NC(CNC(=O)c1cn(C)cn1)CC(C)C (stereo not drawn)	-1.97
CCC(CC)c1cc(CNC(=O)N2CCC(n3cncn3)CC2)on1	-1.7
CC(NC(=O)CCCc1nc(C(C)(C)C)no1)c1nnc2n1CCC2 (stereo not drawn)	-2.92
CCN1CCN(c2ccc(F)cc2C(C)NCc2ccnn2C)CC1 (stereo not drawn)	-1.9

SMILES	cytotoxicity at 70.5 h [%]
O=C(CNc1cc2c(cc1Cl)OCCCO2)NCc1ccc(F)cc1	-4.01
CC(NC(=O)COc1ccccc1C(=O)O)c1ccc(F)cc1 (stereo not drawn)	-9.45
CC(C)OCCC(=O)Nc1cccc(N2CCN(CC3CC3)CC2)c1	-4.83
N#Cc1ccnc(N2CCN(CC(O)c3ccc(F)cc3F)CC2)c1 (stereo not drawn)	-3.3
N#Cc1ccnc(N2CCN(CC(O)c3cc(F)ccc3F)CC2)c1 (stereo not drawn)	-5.77
N#Cc1ccnc(N2CCN(CC(O)c3ccccc3)CC2)c1 (stereo not drawn)	-8.1
Cc1ccc(CNC(=O)C2CCCCN2C(=O)OC(C)(C)C)cn1 (stereo not drawn)	-3.38
O=S(=O)(CCN1CCOC(Cn2cccn2)C1)c1ccccc1 (stereo not drawn)	-7.12
Cc1cc(NC(=O)[C@H]2CCCCN2C(=O)OC(C)(C)C)no1	-2.01
CSCC(C)(O)CNC(=O)c1cccc(Cl)c1Cl (stereo not drawn)	-5.93
N#Cc1ccnc(N2CCN(CC(O)c3ccccc3Cl)CC2)c1 (stereo not drawn)	-0.0236
O=C(CC1CCCO1)Nc1cccc(N2CCN(CC3CC3)CC2)c1 (stereo not drawn)	0.099
CCN1CCN(C(=O)C2CCCc3[nH]ncc32)CC1 (stereo not drawn)	1.54
Cc1cn(CC(=O)NC2CCC(C(=O)O)CC2)c2ccccc12 (stereo not drawn)	-6.01
Cc1cc(C)c2c(c1)C(NCc1nnc3n1CCC3)CCCO2 (stereo not drawn)	-5.63
Cc1n[nH]cc1CNC(=O)[C@H]1CCCCN1C(=O)OC(C)(C)C	8.82
OC(CN(Cc1ccccc1)Cc1cccnc1)c1cccs1 (stereo not drawn)	10
Cc1cccc2c1OCCCC2NCc1nnc2n1CCCCC2 (stereo not drawn)	-7.8
CCN(CC)C(=O)N1CCN(C(=O)C2CCCc3[nH]ncc32)CC1 (stereo not drawn)	-3.25
O=C(C1CCCc2[nH]ncc21)N1CCCC2(C1)OCCO2 (stereo not drawn)	-9.5
CN1CCN(c2cc(CNCc3cccc4c3OCO4)ccn2)CC1	-8.22
Cc1cnn(CC2CN(CCCS(=O)(=O)N(C)C)CCO2)c1 (stereo not drawn)	-10.7
CC(C(=O)NCc1ccnc(OCC(F)(F)F)c1)n1cncn1 (stereo not drawn)	-2.68
Cc1[nH]ncc1CCCNC(=O)Nc1ccc(F)cc1	3.38

SMILES	cytotoxicity at 70.5 h [%]
O=C(c1cccnc1-n1cncn1)N1CCN(c2ccccc2)CC1	-8.14
COc1ccc(Oc2ccc(CNC(=O)C(C)n3cncn3)cn2)cc1 (stereo not drawn)	-0.159
CC(C)(C)c1nnc(CN2CCN(C(=O)N3CCCCC3)CC2)o1	-3.76
CC(C)CCN1CCN(C(=O)c2cccnc2-n2cncn2)CC1	-3.48
Cc1ccc(C(=O)NCCNCC2CNc3ccnn3C2)cc1F (stereo not drawn)	1.33
CCCN1CCN(C(=O)c2cccnc2-n2cncn2)CC1	-2.43
O=C(c1cccnc1-n1cncn1)N1CCN(C2CCCC2)CC1	-5.59
Cc1[nH]ncc1CCCNC(=O)Nc1ccc2c(c1)OC1(CCCC1)O2	-2.92
CCN(C(=O)CSc1ccc(C(F)(F)F)cn1)C1CC1	7.64
Cc1ccc(C(=O)NCCNCC2CNc3ccnn3C2)cc1 (stereo not drawn)	-0.325
CC(C)(C)c1nnc(CN2CCN(C(=O)CC3CCCCC3)CC2)o1	-2.8
Cc1cnn(CC2CCCN2CC(=O)N(C)Cc2cnn(C)c2)c1 (stereo not drawn)	-1.69
Cc1[nH]ncc1CCCNC(=O)Nc1ccccc1	14.5
CCOCC(O)CN1CCN(C(=O)c2ccc(N(C)C)nc2)CC1 (stereo not drawn)	1.39
CC(O)CN1CCN(C(=O)c2ccnc(N(C)C)c2)CC1 (stereo not drawn)	14.1
CCCc1nc(C)c(C(=O)NS(=O)(=O)c2cccnc2)s1	-0.303
CN(CCn1cnnc1)C(=O)c1ccnc(OC2CCC2)c1	16.2
COCC(=O)NCc1cccc(OCCN(C)C2CCOCC2)c1	-0.957
Cc1cccc(C(=O)NCCNCC2CNc3ccnn3C2)c1 (stereo not drawn)	-1.43
CCCc1nc(CN(C)CC2CCN(CCO)CC2)no1	14.7
Cc1[nH]c(C2(N)CCCCC2)nc(=O)c1C	-4.13
CCc1c(C)[nH]c(C2(N)CCCCC2)nc1=O	0.763
